Results as given in patent US10889563B2, “Deoxyuridine triphosphatase inhibitors” (University of Southern California, priority 2013, dated 2021).

How the values were obtained:
[1] = test system: HCT116 cells; test: Colony formation assay, HCT116; type: cell-based; settings: for number of colonies formed, single agent: HCT116, PCI 10213 3.1 to 50 μmol/L or FUdR 0.5 μmol/L alone
Procedure: Colony forming assay showing the ability of colon (SW620, HCT 116), non-small cell lung (A549, H460, H1299 and H358) and breast (MCF7) cancer cells to survive and proliferate following transient 24 hour exposure to single agent PCI 1013, FUdR and combinations. Specifically, cells were seeded at densities between 50 and 100 cells/well in 24-well plates. Twenty-four hours later, cells were treated with increasing concentrations of PCI 10213, a fixed dose of FUdR and combinations of these. After 24 hours, drug was removed, cells were rinsed and allowed to outgrow for 10-14 days. At the conclusion of the outgrowth, cells were fixed in 60% ice cold methanol and stained with 0.1% crystal violet, scanned and counted. Data is presented as percentage of untreated controls (mean±SD). Fraction affected and combination indexes were calculated according to the method of Chou and Talalay where <1 is indicative of a synergistic drug interaction. […]
(§1) In colorectal cancer cells, concentrations of PCI 10213 ranging from 3.1 μmol/L to 50 μmol/L were combined with 0.5 μmol/L FUdR in HCT116 cells and 1 μmol/L FUdR in SW620 cells.

[2] = test system: SW620 cells; test: Colony formation assay, SW620; type: cell-based; settings: for number of colonies formed, single agent: SW620, PCI 10213 3.1 to 50 μmol/L or FUdR 1 μmol/L alone
Procedure: (§2) Colony forming assay showing the ability of colon (SW620, HCT 116), non-small cell lung (A549, H460, H1299 and H358) and breast (MCF7) cancer cells to survive and proliferate following transient 24 hour exposure to single agent PCI 1013, FUdR and combinations. Specifically, cells were seeded at densities between 50 and 100 cells/well in 24-well plates. Twenty-four hours later, cells were treated with increasing concentrations of PCI 10213, a fixed dose of FUdR and combinations of these. After 24 hours, drug was removed, cells were rinsed and allowed to outgrow for 10-14 days. At the conclusion of the outgrowth, cells were fixed in 60% ice cold methanol and stained with 0.1% crystal violet, scanned and counted. Data is presented as percentage of untreated controls (mean±SD). Fraction affected and combination indexes were calculated according to the method of Chou and Talalay where <1 is indicative of a synergistic drug interaction.
as §1

[3] = test system: A549 cells; test: Colony formation assay, A549; type: cell-based
Procedure: as §2
(§3) Subsequently, increasing concentrations of PCI 10213 were combined with a fixed dose of FUdR to evaluate the combined drug effect. In NSCLC cells, concentrations of PCI 10213 ranging from 3.1 μmol/L to 25 μmol/L were combined with 1 μmol/L FUdR. […] The effectiveness of this combination was pronounced in A549 and H460 cells where 12.5 and 25 μmol/L PCI 10213 combined with 1 μmol/L FUdR reduced cell viability by >95% compared to vehicle-treated controls.

[4] = test system: H460 cells; test: Colony formation assay, H460; type: cell-based
Procedure: as §2, §3

[5] = test system: colorectal (HCT116), breast (MCF-7) and non-small cell lung (H1299, A549, H358 and H460) cell line models; test: Colony formation assay, all cell lines evaluated; type: cell-based
Procedure: as §2, §3

[6] = test system: NSCLC cells (H1299, A549, H358 and H460); test: Colony formation assay, NSCLC cells; type: cell-based
Procedure: as §2, §3

[7] = test system: HCT116 cells; settings: for decrease in growth / reduction in proliferation: 100 μmol/L single agent; for combined effect with 5-FU on growth inhibition: HCT116, fixed 25 μmol/L compound plus increasing 5-FU, up to 25 μmol/L 5-FU
[8] = molecular target: T1, Recombinant human deoxyuridine nucleotidohydrolase (dUTPase) (Homo sapiens, UniProt P33316); test: Fluorescence-based dUTPase inhibition assay (Example 23; 2.5 ng dUTPase, 10 min at 37° C.); type: biochemical; set-up: made in house
T1 sequence (P33316 1-164 isoform P33316-2): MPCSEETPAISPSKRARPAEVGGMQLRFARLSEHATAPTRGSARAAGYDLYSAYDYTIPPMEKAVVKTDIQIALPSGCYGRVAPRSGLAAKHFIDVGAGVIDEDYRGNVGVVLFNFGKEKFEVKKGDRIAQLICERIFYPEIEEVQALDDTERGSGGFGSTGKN
Text: PCI 10586, 10585 and 10213 were suspended in DMSO at a concentration of 100 mmol/L, fluorodeoxyuridine (FUdR) was obtained from Sigma (St Louis, Mo.) and maintained in sterile double-distilled water at stock concentrations of 50 mmol/L. Recombinant human deoxyuridine nucleotidohydrolase (dUTPase) was expressed and purified as described previously [Please provide reference or confirm as noted above].
The diastereomer compounds were isolated by preparative chiral HPLC and screened in a novel fluorescence-based assay as described in Wilson et al. (2011) Nucleic Acids Res., September 1 39(17). […] The subsequent fluorescence detection step involved five 10 min cycles at 60° C. to completion.

[9] = test system: A549 cells; test: MTS growth inhibition assay, A549; settings: A549, 72 hours; for decrease in growth / reduction in proliferation: 100 μmol/L single agent
Procedure: (§4) The Cell Titer^96 AQueous MTS assay (Promega) was carried out according to the manufacturers guidelines. […] The combination effect was determined by the combination index (CI) method utilizing Calcusyn software (Biosoft, Ferguson, Mo.). Fraction affected (FA) was calculated from the percent growth inhibition: FA=(100−% growth inhibition)/100. CI values <1, synergism; 1-1.2, additive and >1.2, antagonism.
(§5) The NSCLC cell lines A549 and H1299 were exposed to increasing concentrations of each agent for 72 hours and growth inhibition was directly compared to vehicle-treated controls.

[10] = test system: SW620 cells; test: MTS growth inhibition assay, SW620; settings: for growth inhibition as a single agent: SW620, 25 μmol/L single agent; for single agent activity / decrease in proliferation: 100 μmol/L single agent; for combined effect with 5-FU on growth inhibition: SW620, fixed 25 μmol/L compound plus increasing 5-FU, up to 25 μmol/L 5-FU
Procedure: as §4
HCT116 and SW620 cells were exposed to increasing concentrations of each agent for 72 hours and growth inhibition was directly compared to vehicle-treated controls.

[11] = test system: H1299 cells; test: MTS growth inhibition assay, H1299; settings: H1299, 72 hours, 100 μmol/L single agent
Procedure: as §4, §5

[12] = molecular target: T1, Recombinant human deoxyuridine nucleotidohydrolase (dUTPase); test: Fluorescence-based dUTPase inhibition assay (Example 19; 5 ng dUTPase, 8 min at 37° C.); settings: for inhibition at 2.6 µM: 2.6 umol/L compound; for inhibition at 5.2 µM: 5.2 umol/L compound; for inhibition at 10.4 µM: 10.4 umol/L compound; for inhibition at 20.8 µM: 20.8 umol/L compound; for inhibition at 41.7 µM: 41.7 umol/L compound
Text: All drugs stocks were aliquoted and diluted as appropriate prior to use. The oligonucelotide primer, templates and fluorophore- and quencher-labeled detection probes are synthesized by Integrated DNA Technologies (Coralville, Iowa), subjected to polyacrylamide gel electrophoresis purification and reconstituted in Omnipur sterile nuclease-free water (EMD Chemicals USA, Gibbstown N.J.) at a stock concentration of 100 μmol/L. The two non-emissive (dark) quenching molecules incorporated into the detection probes include the Iowa black fluorescein quencher (IBFQ; absorption max 531 nm) and ZEN (non-abbreviation; absorption max 532 nm). The fluorescent label utilized was 6-FAM (5′-carboxyfluorescein; excitation max.=494 nm, emission max.=520 nm). Probes were further diluted to a working stock of 10 μmol/L and aliquoted to avoid repeated freeze/thaw cycles. AmpliTaq Gold DNA Polymerase, GeneAmp 10×PCR Buffer 2, MgCl2 and MicroAmp Optical 96-well Reaction Plates were purchased from Applied Biosystems (Carlsbad, Calif.). dNTPs were purchased individually at stock concentrations of 100 mmol/L from New England Biolabs at HPLC-certified >99% purity (Ipswich, Mass.).
Reaction mixtures contained primer, probe and template at an equimolar final concentration of 0.4 μmol/L. Magnesium chloride (MgCl2) was included at a final concentration of 2 mmol/L. Non-limiting dNTPs were included in the reaction mix in excess at a final concentration of 100 μmol/L (dUTP/dTTP was excluded). AmpliTaq Gold DNA polymerase was added at 0.875 U/reaction, 2.5 μl of 10×PCR buffer 2 added and nuclease-free ddH2O added to a final reaction volume of 25 μl. For dUTP inhibition analysis, the volume of ddH2O was further modified to accommodate an additional 1 μl of dUTPase (10 ng/μl) and 1 μl of inhibitor or DMSO control. Thermal profiling and fluorescence detection was performed using the ‘isothermal’ program on board an Applied Biosystems 7500 Real-Time PCR System. For analysis of dNTPs, the thermal profile consisted of an 8 min 37° C. step followed by a 10 min 95° C. step to ‘hot-start’ the Taq polymerase and a primer extension time of up to 30 min at 60° C. depending on the application. Raw fluorescence spectra for 6-FAM was measured using filter A at specified time intervals to follow assay progression using Sequence Detection Software (SDS Version 1.4, Applied Biosystems) and exported and analyzed in Microsoft Excel (Microsoft, Redmond Wash.) and Prism (GraphPad Software, La Jolla Calif.). In all cases, fluorescence values for blank reactions (limiting dNTP omitted) were subtracted to give normalized fluorescence units (NFU) to account for background fluorescence.
The assay employs a DNA polymerase-based approach utilizing an oligonucleotide template with 3 distinct regions: a 3′ primer binding region, a mid-template dUTP/thymidine triphosphate (TTP) detection region and a 5′ 6-Flavin adenine mononucleotide (FAM)-labeled probe binding region that incorporates a black hole quenching moiety.
reaction, the probe and primer hybridize to the oligonucleotide template to form the template:primer:probe complex. When Taq polymerase binds to the primer in the TPP complex and dUTP is present, successful extension of the nascent strand occurs and the inherent 5′ to 3′ exonuclease activity of Taq polymerase cleaves and displaces the 6-FAM-labeled probe in a 5′ to 3′ direction, releasing the 6-FAM fluorophore from its proximity to the three quenchers.

[13] = test system: MCF-7 breast cancer cell line; test: Colony formation assay, MCF-7; type: cell-based; settings: MCF-7, 0.5 μmol/L
Procedure: as §2, §3

[14] = test system: HCT-8 colorectal cell line model; test: Colony formation assay, HCT-8; type: cell-based; settings: HCT-8, 1 μmol/L
Procedure: as §2
Colony forming assays were subsequently performed to evaluate the effectiveness of additional PCI compounds alone and in combination with FUdR at reducing cancer cell viability in the HCT-8 colorectal cell line model. […] Subsequently, increasing concentrations of PCI compounds were combined with a fixed dose of 1 μmol/L FUdR to evaluate the combined drug effect.

[15] = test system: HCT116 cells; test: Colony formation assay, HCT116; type: cell-based; settings: HCT116, 0.5 to 5 μmol/L (Example 23)
[16] = test system: HCT116 cells; test: cells; settings: Homo sapiens, HCT-116, read-out: growth inhibition as a single agent

SMILES	number of colonies formed, single agent [1]	number of colonies formed, single agent [2]	decrease in growth / reduction in proliferation ([7]; HCT116, 72 hours)	combined effect with 5-FU on growth inhibition [7]	decrease in growth / reduction in proliferation [9]	growth inhibition as a single agent [10]	single agent activity / decrease in proliferation ([10]; SW620, 72 hours)	combined effect with 5-FU on growth inhibition [10]	decrease in cell proliferation [11]	IC50 [12]	inhibition at 1.3 µM ([12]; 1.3 umol/L compound)	inhibition at 2.6 µM [12]	inhibition at 5.2 µM [12]	inhibition at 10.4 µM [12]	inhibition at 20.8 µM [12]	inhibition at 41.7 µM [12]	% Inhibition ([12]; 83.3 umol/L compound)	inhibition at 83.3 µM ([12]; 83.3 umol/L compound)	other results
C[C@@H](NS(=O)(=O)CC/C=C/CC1CCC(=O)NC1=O)c1cccc(OCC2CC2)c1 (mixture of isomers) [PCI 10213]	neither PCI 10213 or the fixed dose of FUdR single agent had any significant effect on the number of colonies formed	neither PCI 10213 or the fixed dose of FUdR single agent had any significant effect on the number of colonies formed	28%	additive and synergistic increases in growth inhibition	~25%	no detectable effect on growth inhibition	~30%	additive and synergistic increases in growth inhibition	40%	7.2 µM	28%	31.6%	40.9%	60.3%	64.5%	73.8%	86.1%	86%	viability, combination with FUdR ([1]; HCT116, 50 μmol/L compound plus FUdR): complete loss of viability; colonies, all combinations with FUdR ([1]; HCT116, 3.1 to 50 μmol/L compound plus 0.5 μmol/L FUdR): strong synergistic reduction in colonies; reduction of colony formation, combination with FUdR ([1]; HCT116, 12.5 and 25 μmol/L compound plus 0.5 μmol/L FUdR): > 95%; reduction of colony formation, combination with FUdR ([2]; SW620 (strongly FUdR-resistant), 12.5 and 25 μmol/L compound plus FUdR (0.5 μmol/L in the sentence)): > 50%; colonies, all combinations with FUdR ([2]; SW620, 3.1 to 50 μmol/L compound plus 1 μmol/L FUdR): strong synergistic reduction in colonies; reduction of cell viability, combination with FUdR ([3]; A549, 12.5 and 25 μmol/L compound plus 1 μmol/L FUdR, vs vehicle-treated controls): > 95%; reduction of cell viability, combination with FUdR ([4]; H460, 12.5 and 25 μmol/L compound plus 1 μmol/L FUdR, vs vehicle-treated controls): > 95%; number of colonies formed, compound alone ([5]; 3.1 to 25 μmol/L single agent): no significant effects on the number of colonies formed; colonies formed, combination with FUdR ([6]; 3.1 to 25 μmol/L compound plus 1 μmol/L FUdR, vs single agents): highly significant reductions in colonies formed; growth inhibition as a single agent ([7]; HCT116, 25 μmol/L single agent): no detectable effect on growth inhibition; single agent activity (growth inhibition vs vehicle) ([7]; HCT116, 72 hours, up to 75 μmol/L): little to no single agent activity; inhibition at 1.3 µM ([8]; 1.3 μmol/L compound): 4.7%; inhibition at 2.6 µM ([8]; 2.6 μmol/L compound): 9.6%; inhibition at 5.2 µM ([8]; 5.2 μmol/L compound): 14.5%; inhibition at 10.4 µM ([8]; 10.4 μmol/L compound): 24.9%; inhibition at 20.8 µM ([8]; 20.8 μmol/L compound): 30%; inhibition at 41.7 µM ([8]; 41.7 μmol/L compound): 45.5%; inhibition at 83.3 µM ([8]; 83.3 μmol/L compound): 54.6%; single agent activity (growth inhibition vs vehicle) ([10]; SW620, 72 hours, up to 75 μmol/L): neither PCI 10213 or 10214 had any single agent activity
O=c1[nH]c(=O)n([C@H]2C[C@H](O)[C@@H](CO)O2)cc1F [FUdR, fluorodeoxyuridine, reference compound]	neither PCI 10213 or the fixed dose of FUdR single agent had any significant effect on the number of colonies formed	neither PCI 10213 or the fixed dose of FUdR single agent had any significant effect on the number of colonies formed	–	–	–	–	–	–	–	–	–	–	–	–	–	–	–	–	number of colonies formed, FUdR alone ([1]; HCT116, 0.5 μmol/L, vs vehicle-treated controls (Example 23)): no significant effect on number of colonies formed; number of colonies formed, FUdR alone [13]: no significant impact on the number of colonies formed; colonies formed, FUdR alone [14]: no substantial effect on colonies formed; colonies formed, FUdR alone ([5]; all cell lines evaluated, 0.5 to 2.5 μmol/L): dose-dependent decreases in colonies formed; number of colonies formed, FUdR alone ([6]; FUdR printed as One mol/L, vs vehicle-treated controls): no significant effect on number of colonies formed; colonies formed, FUdR alone [15]: dose-dependent decreases in colonies formed
C[C@@H](NS(=O)(=O)CC/C=C/Cn1ccc(=O)[nH]c1=O)c1cccc(OCC2CC2)c1 [PCI 10216, reference compound]	–	–	67%	additive and synergistic increases in growth inhibition	55%	30%	70%	additive and synergistic increases in growth inhibition	30%	0.8 µM	60%	76.6%	84.6%	95.9%	101%	97.2%	95.4%	95%	number of colonies formed, compound alone ([1]; HCT116, 25 and 50 μmol/L single agent): some reduction in the number of colonies formed; number of colonies formed, compound alone ([3]; A549, 25 and 50 μmol/L single agent): some reduction in the number of colonies formed; number of colonies formed, compound alone ([4]; H460, 25 and 50 μmol/L single agent): some reduction in the number of colonies formed; combined drug effect with fixed doses of FUdR ([5]; all cell lines examined (Example 22)): strong synergy; lowest concentration with detectable decrease in cell proliferation ([7]; HCT116, 72 hours, single agent): 6.25 µmol/L; inhibition at 25 µM [16]: 44%; reduction in proliferation ([9]; 75 μmol/L single agent): 30%; % Inhibition ([12]; 1.3 umol/L compound): 60.4%
